In patent US20240124454A1, “TRICYCLIC COMPOUND AND USE THEREOF” (NANJING ZAIMING PHARMACEUTICAL CO., LTD., priority 2020, published 2024):
Read-outs that look alike come from different tables or passages of the source.

Experiments:
[1] = Metabolic stability in human liver microsomes; type: in vitro ADME; settings: pH 7.4, 1 μM compound, 0.5 mg/mL microsome, NADPH, read-out: Human liver microsome stability t1/2
Protocol: Test Example 4. Determination of Metabolic Stability of Compound of the Present Application in Liver Microsomes
The metabolic stability of the compound of the present application in liver microsomes was determined using the following method.
I. Experimental materials and instruments • 1. Human liver microsome (Corning 452117), beagle dog liver microsome (XENOTECH D1000), SD rat liver microsome (XENOTECH R1000), and CD-i mouse liver microsome (XENOTECH M1000) • 2. Na2HPO4 (Tianjin Guangfu Fine Chemical Research Institute 20180130) • 3. KH2PO4 (Tianjin Guangfu Fine Chemical Research Institute 20180920) • 4. MgCl2 (Tianjin Guangfu Fine Chemical Research Institute 20191216) • 5. NADPH (Solarbio 1216C022) • 6. Positive control compound verapamil (Sigma MKBV4993V) • 7. AB Sciex API4000 liquid chromatography-mass spectrometry system
1. Preparation of 100 mMV phosphate-buffered saline (PBS): 7.098 g Na2HPO4 was weighed. 500 mL pure water was added. The mixture was dissolved by sonication to give solution A. 3.400 g KH2PO4 was weighed. 250 mL pure water was added. The mixture was dissolved by sonication to give solution B. The solution A was placed in a stirrer, and the solution B was slowly added until the pH reached 7.4, so that the 100 mM PBS buffer was prepared.
2. Preparation of reaction system
The reaction system was prepared as follows:
3. The reaction system was pre-incubated in a 37° C. water bath for 10 min. 40 μL of 10 mM NADPH solution (NADPH was dissolved by 100 mM phosphate-buffered saline) was added to the reaction system with a final concentration of NADPH being 1 mM. A negative control was made by replacing the NADPH solution with 40 μL phosphate-buffered saline. The negative control was used to exclude the effect of chemical stability of the compound itself.
4. The reaction was initiated by adding 4 μL of 100 μM of the compound of the present application and verapamil, the positive control compound, to the reaction system with a final concentration of the compound being 1 μM.
5. After being uniformly mixed in a vortex oscillator, 50 μL incubation sample was respectively taken out at 0.5, 15, 30, 45, and 60 min, and the reaction was stopped by 200 μL glacial acetonitrile containing an internal standard. The sample was centrifuged at 3220 g for 45 min. 90 μL of the supernatant was transferred to a feeding plate after the centrifugation was completed, and 90 μL ultrapure water was added. The mixture was well mixed for LC-MS/MS analysis.
All data were calculated by Microsoft Excel software. The peak area was detected through an extracted ion chromatogram. The in vitro half-life (t1/2) of the compound was determined by linear fitting of the natural logarithm of compound elimination percentage over time.
In vitro half-life (t1/2) was calculated by the slope: […]
The in vitro intrinsic clearance (in μL/min/mg protein) was calculated using the following formula:
in vitro CLint=k×volume of incubation (μL)/amount of proteins (mg)
CLint was intrinsic clearance; k was an elimination rate constant; volume of incubation was the incubation volume (μL); amount of proteins was the amount of protein (mg)

[2] = Pharmacokinetics in Balb/c Nude mice; type: in vivo; settings: female, mouse, plasma; for bioavailability: Balb/c Nude, vs IV 1 mg/kg; for AUC(0-t): Balb/c Nude mice, read-out: AUC0-24
Protocol: Test Example 9. Determination of Pharmacokinetics of Compounds of Present Application
The pharmacokinetics of the compounds of the present application were determined in mice using the following method.
I. Materials: • Balb/c Nude mice, purchased from Beijing Vital River Laboratory Animal Technology Co., Ltd. • NMP (N-methyl-2-pyrrolidone), Solutol® HS 15 (polyoxyethylenated 12-hydroxystearic acid), and Vitamin E TPGS (D-a-tocopherol-polyethylene glycol 1000 succinate), purchased from Sigma. • Acetonitrile, purchased from Merck (USA).
II. Vehicle preparation: • 10% aqueous VE TPGS solution: 1 g of VE TPGS was dissolved in purified water, and the volume was brought to 10 mL. • 5% NMP+10% Solutol® HS 15+85% water: 0.5 mL of NMP was measured using a pipette, 1 g of Solutol® HS 15 was weighed, and the volume was brought to 10 mL with water.
6 female Balb/c Nude mice (20-30 g, 4-6 weeks) were randomized into 2 groups of 3. Group 1 was administered with 1 mpk (1 mg/kg) test compound by injection at the tail vein (IV), and the vehicle was 5% NMP+10% Solutol® HS 15+85% water. Group 2 was administered with 1 or 3 mpk test compound by oral administration (PO) (see the table below for specific doses), and the vehicle was 5% NMP+10% Solutol® HS 15+85% water or 10% Vitamin E TPGS aqueous solution. Before the experiment, all animals were given free access to food and water. Blood samples of the mice in each group were collected intravenously pre-dose and at 0.083 h (only the intravenous injection group), 0.25 h, 0.5 h, 1 h, 2 h, 4 h, 6 h, 8 h, and 24 h post-dose. The whole blood samples were collected in K2EDTA vacutainers, and the plasma samples were prepared by 5 min of centrifugation (4000 rpm, 4° C.).
10 μL of mouse plasma was added to 150 μL acetonitrile solvent (containing an internal standard) to precipitate the protein. The mixture was vortexed for 0.5 min and centrifuged (14000 rpm) for 5 min. The supernatant was diluted 2-fold with water containing 0.1% (v/v) FA and quantitatively detected on an LC-MS/MS system (AB Sciex Triple Quad 6500+). When the concentration of the sample was measured, quality control samples were also analyzed and a Balb/c Nude mouse plasma standard curve was plotted. For 10× diluted samples, 2 μL of the sample was added to 18 μL of blank plasma. The mixture was vortexed for 0.5 min. Then 300 μL of acetonitrile solvent (containing an internal standard) was added to precipitate the protein. The other steps were the same as those in undiluted samples.

[3] = PO 1 mg/kg, vehicle 5% NMP + 10% Solutol HS 15 + 85% water
[4] = PO 3 mg/kg, vehicle 10% VE TPGS aqueous solution

| half-life at 1 μM [1] [h] | bioavailability [2, 3] [%] | AUC(0-t) [2, 3] [ng·h/mL] | bioavailability [2, 4] [%] | AUC(0-t) [2, 4] [ng·h/mL] | Structure (SMILES) |
| --- | --- | --- | --- | --- | --- |
| > 5 | – | – | – | – | Cc1ncccc1-n1c(=O)c2ncn(C)c2c2ccc(C(F)(F)F)nc21 (atropisomer, axis not shown) [Compound 20, 1-methyl-5-(2-methylpyridin-3-yl)-7-(trifluoromethyl)-1,5-dihydro-4H-imidazo[4,5-c][1,8]naphthyridin-4-one] |
| > 5 | ~100 | 5840 | – | – | Cn1cnc2c(=O)n(-c3cccc(F)c3Cl)c3nc(C(F)(F)F)ccc3c21 (atropisomer, axis not shown) [Compound 25, 5-(2-chloro-3-fluorophenyl)-1-methyl-7-(trifluoromethyl)-1,5-dihydro-4H-imidazo[4,5-c][1,8]naphthyridin-4-one] |
| > 5 | – | – | ~100 | 30300 | Cn1cnc2c(=O)n(-c3cccc(F)c3Cl)c3nc(C(F)(F)F)ccc3c21 (single isomer, unassigned) [Compound 25-P2, 5-(2-chloro-3-fluorophenyl)-1-methyl-7-(trifluoromethyl)-1,5-dihydro-4H-imidazo[4,5-c][1,8]naphthyridin-4-one] |
| > 5 | ~100 | 10500 | – | – | Cn1cnc2c(=O)n(-c3cccnc3C(F)(F)F)c3nc(C(F)(F)F)ccc3c21 (single isomer, unassigned) [Compound 41-P2, 1-methyl-7-(trifluoromethyl)-5-(2-(trifluoromethyl)pyridin-3-yl)-1,5-dihydro-4H-imidazo[4,5-c][1,8]naphthyridin-4-one] |
| 4.26 | ~100 | 10500 | – | – | Cn1cnc2c(=O)n(-c3cccnc3C3CC3)c3nc(C(F)(F)F)ccc3c21 (single isomer, unassigned) [Compound 42-P2, 5-(2-cyclopropylpyridin-3-yl)-1-methyl-7-(trifluoromethyl)-1,5-dihydro-4H-imidazo[4,5-c][1,8]naphthyridin-4-one] |
| > 5 | ~100 | 24400 | – | – | Cn1cnc2c(=O)n(-c3cccnc3C3CC3)c3cc(C(F)(F)F)ccc3c21 (single isomer, unassigned) [Compound 48-P2, 5-(2-cyclopropylpyridin-3-yl)-1-methyl-7-(trifluoromethyl)-1,5-dihydro-4H-imidazo[4,5-c]quinolin-4-one] |
| > 5 | – | – | – | – | O=c1c2ncoc2c2ccc(C(F)(F)F)nc2n1-c1cccnc1C1CC1 (single isomer, unassigned) [Compound 81-P2, 5-(2-cyclopropylpyridin-3-yl)-7-(trifluoromethyl)oxazolo[4,5-c][1,8]naphthyridin-4(5H)-one] |
| > 5 | – | – | – | – | Cc1ncccc1-n1c(=O)c2ncn(C)c2c2ccc(C(F)(F)F)cc21 [Compound 45, 1-methyl-5-(2-methylpyridin-3-yl)-7-(trifluoromethyl)-1,5-dihydro-4H-imidazo[4,5-c]quinolin-4-one] |

| Structure (SMILES) | half-life at 1 μM [1] [h] | bioavailability [2, 3] [%] | AUC(0-t) [2, 3] [ng·h/mL] | bioavailability [2, 4] [%] | AUC(0-t) [2, 4] [ng·h/mL] |
| --- | --- | --- | --- | --- | --- |
| Cn1cnc2c(=O)n(-c3cccnc3C3CC3)c3cc(Cl)ccc3c21 (single isomer, unassigned) [Compound 49-P2, 7-chloro-5-(2-cyclopropylpyridin-3-yl)-1-methyl-1,5-dihydro-4H-imidazo[4,5-c]quinolin-4-one] | 3.78 | 89.6 | 11300 | – | – |
| Cc1ncccc1-n1c(=O)c2ncoc2c2ccc(C(F)(F)F)nc21 [Compound 40, 5-(2-methylpyridin-3-yl)-7-(trifluoromethyl)oxazolo[4,5-c][1,8]naphthyridin-4(5H)-one] | > 5 | – | – | – | – |
